Results reported in article PMC12873548, “D-amino acid substitution and cyclization enhance the stability and antimicrobial activity of arginine-rich peptides” (Microbiology, 2026).
Converted amounts (≈) assume the structure as drawn. Non-standard residues stand in square brackets, D forms with d. Residues, ends and D or L forms follow the SMILES beside them. *: point of attachment. NHhexadecyl = CCCCCCCCCCCCCCCCN*

Key:
S. aureus (ATCC12600) = format: cell-based, Staphylococcus aureus
Experimental: The MIC of arginine-based peptides was assessed using the microbroth dilution approach. Our in vitro screening included a panel of Gram-negative bacteria, Escherichia coli (ATCC 25922 and enterohaemorrhagic O157:H7) and Pseudomonas aeruginosa (PA01 and the drug-resistant strain NCTC 13437), and Gram-positive bacteria (Staphylococcus aureus ATCC 12600). Five-millilitre overnight cultures in Lysogeny broth, prepared from single isolated colonies, were diluted to 5×10^6 c.f.u. ml^−1 mid-log phase in Mueller–Hinton (MH) broth. Next, peptide concentrations (0 to 1 mM) were serially diluted twofold in 96-well plates and incubated overnight at 37 °C with the tested bacterial strains. In each case, the MIC was determined as the lowest peptide concentration at which no detectable bacterial growth was observed, employing an absorbance-based assay using a Tecan Spark® multimode plate reader. Subsequently, 10 µl aliquots from each peptide dilution were transferred to MH agar (1.5%) plates to determine the minimum bactericidal concentration (MBC) which was assessed by establishing at which concentration no visible growth of bacteria (assessed via colony formation) on the plate was observed.

[1] = Stability in human serum by LC-MS; format: in vitro ADME; details: human serum (20% and 50%), 24 h, 37 °C; read-out LC-MS (ESI)
Experimental: (§1) The antimicrobial activity and structural stability of arginine-rich peptides were evaluated in the presence of human serum (20% and 50 %) and 5 µM Sequencing Grade Modified Trypsin (SGMT, Promega). Briefly, fresh human blood was collected in EDTA tubes and allowed to clot at room temperature for 1 h. Serum was then collected following centrifugation at 2,000 r.p.m. for 10 min at 4 °C. Peptides were incubated with 20%, 50% human serum and 5 µM SGMT in 50 mM Tris-HCl buffer (1 mM CaCl₂, pH 7.6) for 24 h at 37 °C. After the incubation period, the solutions were further incubated with E. coli (ATCC 25922 and O157:H7), P. aeruginosa (PA01, NCTC13437) and S. aureus (ATCC12600), and the MIC was assessed as described in the ‘Antibacterial assessment’ section. Additionally, the samples were analysed using electrospray ionization MS to monitor structural changes based on the molecular weight of the peptides.

[2] = biological target: T1, Sequencing Grade Modified Trypsin (Sus scrofa, UniProt P00761); test: Stability with trypsin by LC-MS; format: in vitro ADME; details: 5 µM SGMT trypsin, 50 mM Tris-HCl, 1 mM CaCl2, pH 7.6, 24 h, 37 °C; read-out LC-MS (ESI)
T1 construct: purchased Promega
T1 sequence (P00761 9-231): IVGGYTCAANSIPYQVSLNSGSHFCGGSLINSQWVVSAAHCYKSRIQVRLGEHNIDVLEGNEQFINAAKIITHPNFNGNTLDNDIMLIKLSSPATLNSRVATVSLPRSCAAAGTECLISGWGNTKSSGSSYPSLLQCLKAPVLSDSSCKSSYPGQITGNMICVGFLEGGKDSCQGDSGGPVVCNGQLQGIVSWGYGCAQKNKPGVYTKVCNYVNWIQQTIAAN
Experimental: as §1

E. coli = test: Intracellular ROS, DCFH-DA; format: cell-based, Escherichia coli; details: peptides at MIC, 1/2× MIC, 1/4× MIC, 4 h, 37 °C
Experimental: (§2) Total reactive oxygen species (ROS) was measured using an oxidation-sensitive fluorescent dye, 2′,7′-dichlorodihydrofluorescein diacetate (DCFH-DA). For this assay, E. coli and S. aureus cultures were adjusted to an OD600 of 0.3 in MH broth and exposed to peptides at MIC, 1/2× MIC and 1/4× MIC, or to positive control (5 mM H2O2) for 4 h at 37 °C. Cells were centrifuged at 4,000 r.p.m. for 10 min at 4 °C and resuspended in PBS containing 10 µM DCFH-DA. The suspension was incubated under the same conditions for 30 min. Finally, cells were washed twice with PBS, and 150 µl aliquots were transferred to 96-well plates. Oxidized DCF products were detected using a Tecan Spark® microplate reader with excitation at 485 nm and emission at 530 nm. Additionally, 10 µl of E. coli cells incubated with D-R4F4 at MIC, 1/2×MIC and 1/4×MIC was collected for imaging using an All-in-One Fluorescence Microscope (Keyence, Japan).

E. coli ATCC 25922 [3] = test: Membrane integrity, PI uptake; format: cell-based, Escherichia coli; details: E. coli ATCC 25922, 5 µg ml−1 PI, 1 h
Experimental: (§3) Propidium iodide (PI) uptake was used to assess the permeabilization of the bacterial membrane upon incubation with peptides. E. coli and S. aureus cells, adjusted to an OD600 of 0.5, were placed into a 96-well plate containing 5 mM HEPES buffer (pH 7.4, supplemented with 5 mM glucose) and incubated with 5 µg ml^−1 PI for 15 min. Afterwards, different peptide concentrations were added, and PI uptake was rapidly measured every 10 min over a 1 h period using a Tecan Spark® microplate reader (λex=515 nm, λem=620 nm).

E. coli ATCC 25922 [4] = test: Cytoplasmic membrane depolarization, DiSC3(5); format: cell-based, Escherichia coli; details: peptide at 2× MIC or 1,000 µM, positive control Triton X-100
Experimental: The dye 3,3′-dipropylthiadicarbocyanine iodide DiSC3(5) was employed to evaluate perturbation of the bacterial membrane by our designed arginine-rich peptides. For this, a black 96-well microtiter plate containing 150 µl E. coli cells (OD600=0.5) in MH broth per well was incubated with 0.5 µM DiSC3(5) in 5 mM HEPES buffer (pH 7.4, supplemented with 5 mM glucose and 0.1 M KCl) for 15 min to allow for fluorescence quenching. Then, 2× MIC or 1 mM peptide was added, and changes in fluorescence were monitored in real-time (λex=622 nm, λem=670 nm) using a microplate reader.

S. aureus = test: Intracellular ROS, DCFH-DA; format: cell-based, Staphylococcus aureus; details: peptides at MIC, 1/2× MIC, 1/4× MIC, 4 h, 37 °C
Experimental: as §2

S. aureus ATCC 12600 = test: Membrane integrity, PI uptake; format: cell-based, Staphylococcus aureus; details: S. aureus ATCC 12600, 5 µg ml−1 PI, 1 h
Experimental: as §3

Structure (SMILES)	MBC (S. aureus (ATCC12600); ATCC12600)	MIC (S. aureus (ATCC12600); ATCC12600, 24 h)	Stability with serum proteases (LC chromatogram and mass spectrum) [1]	Stability with trypsin (LC chromatogram and mass spectrum) [2]	Intracellular ROS levels (E. coli)	PI uptake, membrane integrity (E. coli ATCC 25922 [3])	Cytoplasmic membrane depolarization, DiSC3(5) fluorescence (E. coli ATCC 25922 [4])	Intracellular ROS levels (S. aureus)	PI uptake, membrane integrity (S. aureus ATCC 12600)
N=C(N)NCCC[C@@H](N)C(=O)N[C@@H](CCCNC(=N)N)C(=O)N[C@H](CCCNC(=N)N)C(=O)N[C@@H](CCCNC(=N)N)C(=O)N[C@H](Cc1ccccc1)C(=O)N[C@@H](Cc1ccccc1)C(=O)N[C@H](Cc1ccccc1)C(=O)N[C@@H](Cc1ccccc1)C(=O)O [D-R4F4] (H-[dR]R[dR]R[dF]F[dF]F-OH)	250 µM (≈ 308 µg/mL)	125 µM (≈ 154 µg/mL)	appeared at the same retention time in both the absence and presence of proteases	appeared at the same retention time in both the absence and presence of proteases					
CCCCCCCCCCCCCCCCNC(=O)[C@H](CCCNC(=N)N)NC(=O)[C@H](CCCNC(=N)N)NC(=O)[C@H](CCCNC(=N)N)NC(=O)[C@@H](N)CCCNC(=N)N [Peptide R4-C16] (H-RRRR-NHhexadecyl; N-terminus and C-terminus assumed)					highest modulation of ROS levels	membrane-disruptive activity	significantly higher fluorescence levels compared to the positive control	highest modulation of ROS levels	membrane-disruptive activity
